The subject of data set [1] is HSV-1 envelope. Nature of the data set: HSV-1 envelope interaction studies (intercalation assay). It counts as cell-based, herpes simplex virus-1. Particulars: 2 and 10 µM, pre-incubation at 37 °C, Vero cells.
In data set [2] the test system is HSV-1 virus-cell fusion. In words: HSV-1-based fusion assay. It counts as cell-based, herpes simplex virus-1. Particulars: for plaque numbers in fusion assay: Vero cells; for plaque size in fusion assay: Vero monolayers in presence of compound. The method, then: In the fusion assay, HSV-1 was attached to Vero cells at 4 °C, but virus–cell fusion was blocked due to the low temperature.
HSV-1 (100 PFU/mL) was then added to the cells and incubated at 4 °C for 2 h. After incubation, the cell monolayers were washed three times with ice-cold PBS to remove un-adsorbed virus, and fresh ice-cold medium containing the tested compounds (0, 0.08, 2, and 10 µM) was added to the cells and incubated for 2 h at 4 °C. After another 2 h incubation at 37 °C, the medium was aspirated, the cells were washed with PBS and fresh medium containing 1.5% carboxymethylcellulose was added to the cells.

In data set [3] the test system is VSV Indiana strain. In words: microbe, parasite or virus in culture. It counts as cell-based, vesicular stomatitis Indiana virus. The note with it: Vesicular stomatitis virus, HEK-293T, 1 h, read-out: VSV, EC50.
Data set [4] has as its system Vero cells. Nature of the data set: Light-induced cytotoxicity (photocytotoxicity) in Vero cells. Particulars: blue light 10 min vs daylight, 0–10 µM, 48 h. It counts as cell-based, African Green Monkey. Here is the method:
(§1) Subsequently, cells treated with the compounds were irradiated with LEDs (465–480 nm, 30 mW/cm^2) for 10 min at RT. As a negative control, compound-treated cells were incubated for 10 min in daylight at RT. Then, both the irradiated and non-irradiated cell monolayers were incubated at 37 °C in the dark for 48 h. Subsequently, the cell culture medium was aspirated and the cytotoxicity of the tested perylene derivatives was determined based on cell viability using Cell Counting Kit-8 (Dojindo Molecular Technologies, Munich, Germany) according to the manufacturer’s instructions. Note: all manipulation with samples was performed in daylight (Figure 7K).

Experiment in data set [5]: as above
Particulars: African green monkey, Vero cells; blue light 465–480 nm, 10 min, then 48 h; read-out: cell viability of Vero cells after irradiation. Format: cell-based, African Green Monkey. Here is the method: as §1

Data set [6] has as its system HSV-1, strain MacIntyre. Nature of the data set: HSV-1 titer reduction assay in Vero cells. The note with it: 10 µM, 48 h; for viral replication and spread in HSV-1-infected Vero cell culture: inside cell culture (Figure 6C); for anti-HSV-1 activity in Vero cells: viral titer in medium supernatant.
Data set [7] is described as follows: Solubilization in 15% DMSO in water. The note with it: for solubility: aqueous with cosolvent or surfactant or cyclodextrin, kinetic from dmso stock.
Experimental: To perform this measurement, the compound was dissolved in DMSO and then diluted with water to achieve a solution containing 15% DMSO. The solution was centrifuged, and the resulting supernatant was lyophilized (evaporated) to dryness. Subsequently, the dry residue was dissolved in DMSO, and the concentration of the compound dissolved in DMSO was determined spectrophotometrically.
The mixtures were then centrifuged at 20,000 rcf for 5 min; 500 μL of the supernatant were collected and lyophilized; 76 µL of DMSO were added to the dry residue, and the absorbance was measured at the maximum absorption wavelength for compounds in solutions diluted 200 times with methanol. The data obtained were recalculated according to the law of dilutions and Beer’s law to obtain the initial concentrations of the compounds solubilized in 15% DMSO in water.
The format of data set [8] is physicochemical. Particulars: methanol, DPBF trap, 450–470 nm, relative to riboflavin.
Data set [9] has as its system HSV-1, strain MacIntyre. In words: Photodynamic inactivation of HSV-1 (virus treated with compound, plaque assay). It counts as cell-based, herpes simplex virus-1. Particulars: for EC50: Human alphaherpesvirus 1, 10 min, HSV-1 10^4 PFU/mL, plaque assay.
Where [10] appears, read: 10 min in daylight, read-out: EC50 (µM) in Daylight.
[11] abbreviates: blue light 465–480 nm, 30 mW/cm^2, 10 min, read-out: EC50 (µM) under Blue Light.

In brackets after ≈: the same amount, converted by molar mass. Entries after “also recorded” stand apart in the source; their conditions may differ. Like-named read-outs stand apart in the source and are kept apart here.

Consider `CCCCc1ccc2c3cccc4c(C#Cc5cn([C@@H]6O[C@H](CO)[C@@H](O)[C@@H]6O)c(=O)[nH]c5=O)ccc(c5cccc1c52)c43` [Compound 9a, 5-[9(10)-Butylperylen-3-ylethynyl]-arabino-uridine], for which the “plaque formation after pretreatment of HSV-1” value in [1] was “completely inhibited the ability of the virus to form plaques”. The “plaque numbers in fusion assay” value was “plaque numbers were similar to controls” in data set [2] (0.08 µM); “reduction in plaque numbers” in data set [2] (most pronounced at 2 and 10 µM). Further, in data set [2], the “plaque size in fusion assay” value is given as “significantly smaller plaques”. For the same molecule, the EC50 – broadly, the concentration giving half of the maximal effect – in data set [3] was found to be 2 ± 1.8 µM; in data set [9] (setting [10]) it was 2.23 µM; in data set [9] (setting [11]), 0.102 µM. Further, the “photocytotoxicity to Vero cells” value in data set [4] is listed as “did not increase the cytotoxicity”. In addition, the viability – broadly, a read-out of living cells in per cent, often relative to untreated cells – at 48 h in data set [5] lay in the range of 115 to 128%. For the same molecule, the “viral replication and spread in HSV-1-infected Vero cell culture” value in [6] was “did not suppress viral replication and spread”. The “anti-HSV-1 activity in Vero cells” value in data set [6] was “completely inhibited viral replication; also recorded: higher antiviral potency compared to acyclovir”. Further, the “solubility in 15% DMSO in water” value in data set [7] is given as “relatively high solubility”. Besides, the concentration in solution in [7] (solubility) came to 0.6 µM (≈ 0.345 µg/mL). The “1O2 Quantum Yield” value in data set [8] came out at 31.9 ± 8.5%. The “Decrease in EC50 (Fold)” value in [9] was found to be 21.9 fold.
`CCCCc1ccc2c3cccc4c(C#Cc5cn([C@H]6C[C@H](O)[C@@H](CO)O6)c(=O)[nH]c5=O)ccc(c5cccc1c52)c43` [Compound 11a, 5-[9(10)-Butylperylen-3-ylethynyl]-deoxy-uridine]: the “plaque formation after pretreatment of HSV-1” value in [1] is reported as “completely inhibited the ability of the virus to form plaques”. In addition, the “plaque numbers in fusion assay” value in data set [2] (0.08 µM) is given as “plaque numbers were similar to controls”; in [2] (most pronounced at 2 and 10 µM), “reduction in plaque numbers”. Besides, in data set [2], the “plaque size in fusion assay” value is reported as “significantly smaller plaques”. For the same molecule, the EC50 in data set [3] came out at 0.5 ± 0.1 µM; in [9] (setting [10]), 1.83 µM; in data set [9] (setting [11]) it was 0.098 µM. Moreover, the “viral replication and spread in HSV-1-infected Vero cell culture” value in [6] is “did not suppress viral replication and spread”. In data set [6], the “anti-HSV-1 activity in Vero cells” value is listed as “completely inhibited viral replication; also recorded: higher antiviral potency compared to acyclovir”. Besides, in data set [7], the “solubility in 15% DMSO in water” value was “relatively high solubility”. Further, the solubility (in general, the concentration that dissolves in the medium under given conditions) in data set [7] was determined as 0.51 µM (≈ 0.285 µg/mL). The “1O2 Quantum Yield” value in [8] turned out to be 23.6 ± 1.4%. For the same molecule, the “Decrease in EC50 (Fold)” value in data set [9] is 18.6 fold.

These data come from PMC10671050, “Alkyl Derivatives of Perylene Photosensitizing Antivirals: Towards Understanding the Influence of Lipophilicity” (International Journal of Molecular Sciences, 2023).
